From ChEMBL document CHEMBL2331348, “Positive allosteric modulators of nicotinic acetylcholine receptor” (ACS Med Chem Lett, 2013)

Biological target: Neuronal acetylcholine receptor subunit alpha-7 (Homo sapiens, UniProt P36544)
Experiment: Positive allosteric modulator activity at human alpha7 nAChR expressed in rat GH4C1 cells assessed as potentiation of acetylcholine-induced response by FDSS Ca2+ assay
Assay type: cell-based, GH4-C1

Sequence of Neuronal acetylcholine receptor subunit alpha-7 (P36544 whole entry): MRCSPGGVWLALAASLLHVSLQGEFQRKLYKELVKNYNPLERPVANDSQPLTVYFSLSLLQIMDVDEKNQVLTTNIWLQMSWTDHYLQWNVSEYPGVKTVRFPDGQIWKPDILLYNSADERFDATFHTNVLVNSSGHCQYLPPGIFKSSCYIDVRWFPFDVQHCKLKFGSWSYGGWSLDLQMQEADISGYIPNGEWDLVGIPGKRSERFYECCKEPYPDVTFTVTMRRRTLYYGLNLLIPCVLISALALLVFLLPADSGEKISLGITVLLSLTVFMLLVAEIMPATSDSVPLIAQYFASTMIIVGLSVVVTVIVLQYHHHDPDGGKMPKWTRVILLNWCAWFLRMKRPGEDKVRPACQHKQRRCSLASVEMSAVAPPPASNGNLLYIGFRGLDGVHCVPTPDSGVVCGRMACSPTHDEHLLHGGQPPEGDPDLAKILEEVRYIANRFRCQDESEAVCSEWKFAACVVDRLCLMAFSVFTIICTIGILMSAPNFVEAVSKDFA

EC50: 2 µM
SMILES: C[C@H](NC(=O)[C@H]1C[C@@H]1c1ccccc1)c1ccc(S(C)(=O)=O)nc1
